Measured values as given in patent publication US20230086833A1, “DEFIBROTIDE TREATMENT FOR THE PREVENTION OF ORGAN REJECTION AND INJURY” (Jazz Pharmaceuticals Ireland Limited, priority 2020, published 2023).

System: autologous dog kidney transplant model for IRI
Test: Autologous dog kidney transplant model for ischaemia reperfusion injury (IRI)
Format: in vivo
Procedure: An autologous dog kidney transplant model for IRI was developed (FIG. 1). The right kidney was removed from a dog at day 0 of the study and was exposed to cold ischemia for 32 hours. After exposure to cold ischemia, the right kidney developed IRI. Subsequently, in an autotransplant, the right kidney was implanted, and the left kidney was removed. Defibrotide was administered to the dog prior to transplant and after transplant four times per day for 7 days at doses of 3 mg/kg, 10 mg/kg, or 25 mg/kg. Clinical endpoints were evaluated, including bleeding at the anastomosis site, coagulation, renal function labs, serum creatinine, blood urea nitrogen (BUN), histopathology at sacrifice, and the measurement of biomarkers, including endothelin-1, Kim-1, ICAM-1, E-selectin, t-PA, PAI-1, Thrombomodulin, IL-6, TNF-α, MCP-1, and A2M.
The gross dog kidney morphology was evaluated at the termination of the study.
The creatinine level, a marker of renal function, was measured pre-transplant and post-transplant after treatment with saline control, 3 mg/kg, 10 mg/kg, or 25 mg/kg of defibrotide. […] Each curve represents a different dog.

Substance: defibrotide
- severity of hemorrhage after IRI (FIG. 2, dose response) (after higher doses of defibrotide, saline control): the severity of hemorrhage lessened
- creatinine levels (marker of renal function, FIG. 3) (after six days of defibrotide, 3, 10 or 25 mg/kg, post-transplant): decreased to levels just above normal
- hemorrhage, gross dog kidney morphology at the termination of the study (higher doses of defibrotide (3, 10 or 25 mg/kg, four times per day for 7 days), kidney exposed to cold ischemia for 32 hours): Minimal hemorrhage
- renal function post IRI (higher doses of defibrotide, after transplant): improved renal function
